In patent publication US20250161238A1, “NMDAR Antagonists Prevent Ageing and Aging-Associated Conditions and Diseases Through Increasing 20S Proteasome Activity” (priority 2022, published 2025):

Assays:
[1] = tested on: human mesenchymal stem cells; assay: Lipid droplet amount in mesenchymal stem cells; assay type: cell-based; details: day 14
Text: Cell were harvested at day 14 for western blot and the protein expression amounts of the differentiation markers cd44, cd73, and cd90 were investigated. […] Another indicator of the stem cell differentiation is the determination of the amounts of lipid droplet in the cell. Fourteen-day cell passage is caused to increase lipid in the cell. It was observed that memantine treatment has prevented the amount of lipid droplet (FIG. 36D).

C. elegans [2] = assay: C. elegans movements (non-moving, swimming); assay type: in vivo; details: 18th day
Description: Therefore, the movements of the C. elegans grown at 20° C. on standard nematode growth medium(NGM) plates shaked at constant speed at 200 rpm were recorded for 5 minutes on the 18th day. All C. elegans in plate well were individually followed and counted by three different eyes for 5 minutes. […] One of the basic movement of C. elegans in liquid is crawling while the other is swimming. Previously described that swimming is more energetically demanding for C. elegans than the crawling motion. In addition it was stated that having the ability to swim is related to locomotory fatigue, muscle mitochondrial oxidation, a transcriptional oxidative stress response, and changes in carbohydrate and fat metabolism. It was also known that the swimming ability of C. elegans is also related to pharyngeal, intestinal, neuronal functions and strong muscle into old age.
(§1) To sterilize the animals 300 μL of a 6 mM Fluorodeoxyuridine (FUDR) stock solution was added to 10 ml medium. During the monitoring of their life span, the worms were kept by shaking at a constant speed of 200 rpm. Locomotor activities of the worms were recorded and available.

C. elegans [3] = assay: C. elegans life span in liquid medium; assay type: in vivo; details: for C. elegans survived compared to control: 20th day
Text: C. elegans is a free-living multicellular organism. Clear age-dependent human like physiological changes at the tissue, cellular, and molecular levels make C. elegans a valuable model for research in the field of aging and life span studies (Ambros, 2006). Accordingly, it was investigated how NMDAR blockers affact the life span of C. elegans. The use of drugs in the C. elegans related studies has been applied in different ways. The drugs were either applied to the LB medium with bacteria OP50, before spreading onto Nematode Growth Medium (NGM) plates (LB medium method), or to the NGM with live (NGM live method) or dead bacteria (NGM dead method), or spotting the drug solution to the surface of plates directly (spot dead method), or growing the worms in liquid medium (liquid growing method) (Ambros, 2006). Liquid growing method achieved the best absorption efficiency in worms. […] Therefore in this invention all the experiements related with the C. elegans were completed in liquid medium. In order to understand the effectiveness of the drug according to the onset time, the memantin was added to the medium on the 1st, 7th and 14th days in a 24-day period and the number of viable worms were determined on the 20nd day.
C. elegans strains used in this study were gift from Dr. Deniz Aksoy, Faculty of Sciency-Trakya University-Turkey. Preparation of liquid culture of C. elegans was prepared according to the Stiernagle, T. Maintenance of C. elegans (Feb. 11, 2006), WormBook, http://www.wormbook.org. Animals were grown on nematode growth medium (NGM) (50 mM NaCl, 2% agar, […], 5 mg/L cholesterol, 1.0 mM CaCl2), 1.0 mM MgSO4, 25 mM potassium phosphate, pH 6.0) seeded with Escherichia coli OP50 at 20° C. using standard methods.
For this purpose, the method described by Sulston, J. & Hodgkin, J. was followed. (See, Methods. in: Wood, W. B. (ed.) The Nematode Caenorhabditis elegans. (1988) Cold Spring Harbor Laboratory, Cold Spring Harbor: 587-606.; Solis, G. M., Petrascheck, M. Measuring Caenorhabditis elegans Life Span in 96 Well Microtiter Plates. 2011, J. Vis. Exp. (49)) Two-3 days old worms with eggs growing in NGM were transferred to 50 ml flask using S-medium. After centrifugation, worms were treated with 20% Alkaline Hypochlorite Solution and the eggs were transferred to the S-medium after washing with S-medium.
as §1

NMDA receptor = details: cited from earlier work
mice = assay: Open Field Maze (OFM) tests in aged mice; assay type: in vivo
Text: Another test showing locomotor activity in mice is Open Field Maze (OFM). The OFM is one of the most widely used platforms which allow the researcher to measure behaviors ranging from overall locomotor activity to anxiety-related emotional behaviors. The first and most important specific parameter to measure in the OFM is total ambulatory distance.
The experimental protocols were approved by the Ethics Committee of Ankara University, Faculty of Medicine, Medical Sciences Experimental Research and Application Center (Date: Dec. 11, 2019 and Decision number: 2019-22-189). Adult (12-mounts-old) C57BL/6 mice (5 for each group) were used. The mice were housed at the Experimental Animal Research Laboratory of Ankara University Faculty of Medicine. Food and water were given without restriction. The ambient temperature was kept at 21±2° C., and locomotor activity tests were performed at this temperature. The animals were housed in a room with a 12-hour light/dark cycle. The procedures in the study were performed in accordance with the Ankara University Animal Care Committee according to international guidelines. Memantine (Sigma-Aldrich) was administered orally at 3 mg/Kg/per day with drinking water of one-year-old mice. Tests related to locomotor activities of the mice were recorded and available.
Open Field Test described firstly Hall for “emotionality” (Hall, 1934). Open Field test is used for anxiety-like behavior (ALB) and locomotor activity. We conducted the test in a hypethral box, which was made of 62×68 cm blueboard. The base of the box was divided into 20 equal rectangles. Animals had placed in the central region of Open Field Test. The first 5 min of the record was used for the analysis of behavioral parameters such as total distance traveled (horizontal locomotor activity), total rearing number (vertical locomotor activity), central zone time (ALB), Central zone Latency (the time of first return to the central region: ALB), central zone entrance (ALB), unsupported rearing (vertical locomotor activity without touch test wall and exploratory behavior, sensitive for ALB), central escape latency (first escape time from central zone: ALB) (Çalιşkan et al, 2019, Çalιşkan et al, 2020).

In the case of CC12CC3CC(C)(C1)CC(N)(C3)C2 [memantine, 3,5-dimethyladamantan-1-amine], the “amount of lipid droplet” value [1] is reported as “prevented”, the “number of C. elegans that can swim compared to without treatment” value (C. elegans [2]) is reported as 2,4 times and the “C. elegans survived compared to control” value (C. elegans [3]; memantin started on day 7 or day 1) is reported as roughly 3 times. The “C. elegans survived compared to control” value (C. elegans [3]; memantin started on the 14th day) was 67%, the “worms survived compared to no-treatment” value (C. elegans [3]; day 21) was 4 times and the “life span of C. elegans” value (C. elegans [3]; log-rank (Kaplan-Meier)) was “increase”. The “block of NR2C and NR2D Subunits” value (NMDA receptor) was “preferentially blocks”, the “effects at NR2A” value (NMDA receptor) was “weak effects” and the “potency at NR1A/2B” value (NMDA receptor) was “intermediate potency”. For the same molecule, the “levels at which the mechanism of action is specific for antagonism of the NMDA receptor” value (NMDA receptor; does not affect other ligand-gated or Voltage gated channels) was 1 to 10 µM, the Central zone time (mice; 5-minute movements) was 4 times and the Central latency time (mice; P 0.07) was “differed at least twice”. The Central zone entrance (mice; P 0.08) was “differed at least twice”, the Central escape latency (mice; P 0.4) was “differed at least twice” and the total ambulatory distance (mice; five minute recordings) was “nearly two times more”. The Peripheral zone time (mice; mouse, in vivo) was “mice not receiving memantine remained in the peripheral regions more” and the total rearing activity (mice; mouse, in vivo) was “twice as much rearing activity”.
